Patent US20230277464A1, “TABLET DOSAGE FORMS FOR LIPID-BASED DRUG DELIVERY SYSTEMS” (ABITEC Corporation, priority 2022, published 2023)

Test: Visual dissolution of ibuprofen in SEDDS pre-concentrate
Type: physicochemical
Method: The medium chain fatty acid esters and oil were weighed into a 2000 mL glass beaker. Subsequently, a magnetic stirrer was added to the beaker. The medium chain fatty acid esters and oil were blended to uniformity for 5 minutes with the magnetic stirrer set at 5. […] […] The pre-concentrate was observed 24 hours later to ensure that the ibuprofen was still dissolved.

Time ibuprofen remained dissolved in the pre-concentrate (room temperature): at least 24 hours
Ibuprofen dissolved in the pre-concentrate components (with heating): about 15.0%
Structure (SMILES): CC(C)Cc1ccc(C(C)C(=O)O)cc1 (centres unmarked) [Ibuprofen, ibuprofen]
